ChEMBL document CHEMBL5108043, “Novel benzimidazole-based pseudo-irreversible butyrylcholinesterase inhibitors with neuroprotective activity in an Alzheimer's disease mouse model” (RSC Med Chem, 2022)
pIC50: −log10 of the molar value. Values after ≈ are worked out from the molar mass of the structure shown. Active and inactive are the calls of the source. The rule behind the calls is not given here.

Assays:
Acetylcholinesterase [1] = molecular target: T1, Acetylcholinesterase (Homo sapiens, UniProt P22303); assay: Inhibition of human AChE using acetylthiocholine iodide as substrate at 10 uM preincubated for 20 mins followed by substrate addition and measured every 30 sec for 3 mins by DTNB-based UV analysis relative to control; conditions: time 23.0 min
T1 sequence (P22303 whole entry): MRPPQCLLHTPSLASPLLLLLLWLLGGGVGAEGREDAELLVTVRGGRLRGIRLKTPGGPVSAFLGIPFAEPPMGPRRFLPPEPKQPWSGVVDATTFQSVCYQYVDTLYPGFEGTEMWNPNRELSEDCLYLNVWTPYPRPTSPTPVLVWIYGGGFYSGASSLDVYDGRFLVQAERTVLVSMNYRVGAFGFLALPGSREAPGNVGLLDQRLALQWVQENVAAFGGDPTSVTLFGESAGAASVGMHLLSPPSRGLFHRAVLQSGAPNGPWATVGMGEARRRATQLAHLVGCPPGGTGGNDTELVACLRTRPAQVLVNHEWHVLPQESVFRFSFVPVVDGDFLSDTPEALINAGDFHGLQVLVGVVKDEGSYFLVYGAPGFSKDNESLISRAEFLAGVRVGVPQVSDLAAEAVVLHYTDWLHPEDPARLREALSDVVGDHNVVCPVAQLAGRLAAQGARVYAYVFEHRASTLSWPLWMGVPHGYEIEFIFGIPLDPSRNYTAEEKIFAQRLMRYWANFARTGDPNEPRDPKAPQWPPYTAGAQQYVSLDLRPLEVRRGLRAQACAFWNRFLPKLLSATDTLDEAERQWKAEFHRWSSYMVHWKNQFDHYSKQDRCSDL

Cholinesterase [2] = molecular target: T2, Cholinesterase (Homo sapiens, UniProt P06276)
T2 sequence (P06276 whole entry): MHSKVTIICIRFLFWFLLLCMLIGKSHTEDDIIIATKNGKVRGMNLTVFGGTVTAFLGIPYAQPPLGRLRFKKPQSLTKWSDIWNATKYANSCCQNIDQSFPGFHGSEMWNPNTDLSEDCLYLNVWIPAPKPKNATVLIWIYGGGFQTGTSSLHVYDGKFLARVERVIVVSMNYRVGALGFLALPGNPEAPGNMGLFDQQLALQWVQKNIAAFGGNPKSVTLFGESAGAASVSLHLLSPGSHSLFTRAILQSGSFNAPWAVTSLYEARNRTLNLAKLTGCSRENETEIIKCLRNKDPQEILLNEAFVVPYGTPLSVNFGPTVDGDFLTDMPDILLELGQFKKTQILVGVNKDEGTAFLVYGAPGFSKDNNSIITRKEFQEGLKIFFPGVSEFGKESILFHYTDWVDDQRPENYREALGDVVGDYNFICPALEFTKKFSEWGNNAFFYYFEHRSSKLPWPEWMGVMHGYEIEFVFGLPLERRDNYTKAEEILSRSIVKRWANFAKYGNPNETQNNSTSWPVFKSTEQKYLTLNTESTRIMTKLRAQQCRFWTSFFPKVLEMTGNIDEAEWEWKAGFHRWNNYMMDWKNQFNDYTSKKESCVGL
Description: Inhibition of human BChE using butyrylthiocholineiodide as substrate preincubated for 20 mins followed by substrate addition and measured every 30 sec for 3 mins by DTNB-based UV analysis

Cannabinoid receptor 2 [3] = molecular target: T3, Cannabinoid receptor 2 (Homo sapiens, UniProt P34972); assay: Binding affinity to human CB2 receptor expressed in HEK cells at 10 uM relative to control; assay type: cell-based
T3 sequence (P34972 whole entry): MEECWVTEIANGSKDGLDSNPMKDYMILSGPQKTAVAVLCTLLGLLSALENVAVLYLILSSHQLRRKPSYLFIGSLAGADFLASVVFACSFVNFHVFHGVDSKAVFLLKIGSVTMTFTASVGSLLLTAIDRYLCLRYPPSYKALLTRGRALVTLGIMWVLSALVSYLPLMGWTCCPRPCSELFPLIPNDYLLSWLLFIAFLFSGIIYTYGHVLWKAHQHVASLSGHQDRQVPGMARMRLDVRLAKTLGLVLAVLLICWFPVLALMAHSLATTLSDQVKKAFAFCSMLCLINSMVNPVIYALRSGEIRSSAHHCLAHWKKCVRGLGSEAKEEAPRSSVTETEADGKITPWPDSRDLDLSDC

physchem = conditions: PBS buffer
Description: (§1) Solubility of the compound in PBS buffer incubated overnight at room temperature by HPLC based continuous shake-flask method

[4] = Neurotoxicity against mouse HT-22 cells assessed as cell viability at 1 to 25 uM by MTT assay; assay type: toxicity, cell-based; conditions: ht-22, 25 µM, dose 1-25 µM
[5] = buffer
Description: as §1

Acetylcholinesterase [6] = molecular target: T1, Acetylcholinesterase
Description: Inhibition of human AChE using acetylthiocholine iodide as substrate preincubated for 20 mins followed by substrate addition and measured every 30 sec for 3 mins by DTNB-based UV analysis

Cholinesterase [7] = molecular target: T2, Cholinesterase; conditions: time 1.0 hrs
Cannabinoid receptor 2 [8] = molecular target: T3, Cannabinoid receptor 2; assay: Displacement of [3H]CP55940 from human CB2 receptor expressed in HEK cells incubated for 3 hrs by competitive assay; assay type: cell-based
Mus musculus [9] = assay: Anti-alzheimer activity against amyloid beta 25-35 induced learning impairments in Swiss mouse assessed as attenuation of spatial working memory at 0.03 mg/kg, ip administered for 7 days and measured on day 8 by Y-maze test; assay type: functional, organism-based; conditions: time 8.0 day
Cholinesterase [10] = molecular target: T2, Cholinesterase; assay: Pseudo-irreversible inhibition of human BChE assessed as decarbamylation of enzyme by measuring rate constant k4 incubated for 1 hrs
[11] = Neurotoxicity against mouse HT-22 cells assessed as cell viability at 0.75 to 25 uM by MTT assay; assay type: toxicity, cell-based; conditions: ht-22, 25 µM, dose 0.75-25 µM
Cholinesterase [12] = molecular target: T2, Cholinesterase; assay: Pseudo-irreversible inhibition of human BChE using butyrylthiocholineiodide as substrate assessed as equilibrium constant Kc preincubated for 20 mins followed by substrate addition and measured every 30 sec for 3 mins by DTNB-based UV analysis; conditions: time 23.0 min
Mus musculus [13] = assay: Anti-alzheimer activity against amyloid beta 25-35 induced learning impairments in Swiss mouse assessed as attenuation of long-term memory at 0.03 mg/kg, ip administered for 7 days and measured on day 10 by passive avoidance test; assay type: functional, organism-based; conditions: time 10.0 day
Cholinesterase [14] = molecular target: T2, Cholinesterase; assay: Pseudo-irreversible inhibition of human BChE using butyrylthiocholineiodide as substrate assessed as rate constant k3 preincubated for 20 mins followed by substrate addition and measured every 30 sec for 3 mins by DTNB-based UV analysis; conditions: time 23.0 min

Row | SMILES | inhibition (Acetylcholinesterase [1]) [%] | pIC50 (Cholinesterase [2]) | solubility thermodynamic (physchem) [µg/mL] | pIC50 (Acetylcholinesterase [6]) | other results
1 | CCN(CC)C(=O)c1ccc2c(c1)nc(Cc1ccc(OC(=O)N3CCCC3)cc1)n2CCC(C)C | 16 | 6.86 | 3.9 (≈ 7.95 µM) |  | Activity (Cannabinoid receptor 2 [3]): < 10%
2 | CCCCCCCNC(=O)Oc1ccc(Cc2nc3cc(C(=O)NCCC(C)C)ccc3n2CCC(C)C)cc1 | 55 | 8.43 | < 1 |  | 
3 | CCN(CC)C(=O)c1ccc2c(c1)nc(Cc1ccc(O)cc1)n2CCC(C)C |  |  |  |  | Activity [4]: Non-Toxic
4 | CCCCCCCNC(=O)Oc1ccc(Cc2nc3cc(C(=O)Nc4ccccc4)ccc3n2CCC(C)C)cc1 | 49 | 7.81 |  |  | solubility [5]: Insoluble
5 | CCCCCCCNC(=O)Oc1ccc(Cc2nc3cc(C(=O)N4CCCCC4)ccc3n2CCC(C)C)cc1 |  | 7.51 | < 1 | 7.24 | 
6 | CCCCCCCNC(=O)Oc1ccc(Cc2nc3cc(C(=O)N(CC)CC)ccc3n2CCCCN2CCCCC2)cc1 |  | 5.62 | 67 (≈ 111 µM) | 5.67 | 
7 | CCN(CC)C(=O)c1ccc2c(c1)nc(Cc1ccc(OC(=O)N3CCC3)cc1)n2CCC(C)C |  |  | 7.2 (≈ 15.1 µM) | 6.20 | T1/2 (Cholinesterase [7]): 56.3 min; pIC50 (Cannabinoid receptor 2 [8]): 5.30; Activity (Mus musculus [9]): Active; K (Cholinesterase [10]): 0.74 h⁻¹; Activity [11]: Non-Toxic; K (Cholinesterase [12]): 3 µM; Activity (Mus musculus [13]): Active; K (Cholinesterase [14]): 8.9 min⁻¹
8 | CCCCCCCNC(=O)Oc1ccc(Cc2nc3cc(C(=O)N(CC)CC)ccc3n2CCC(C)C)cc1 |  | 7.88 | < 1 | 6.76 | Activity (Cannabinoid receptor 2 [3]): 33%
9 | CCN(CC)C(=O)c1ccc2c(c1)nc(Cc1ccc(OC(=O)NCCCCCCN3CCc4ccccc4C3)cc1)n2CCC(C)C |  | 7.12 |  | 5.02 | solubility [5]: Insoluble
10 | CCCCCCCNC(=O)Oc1ccc2c(c1)CN1CCc3ccccc3C1N2C (stereo unspecified) | 39 |  | < 1 |  | 
